These are literature values, as cited in patent publication US20080241117A1, “Oral Care Compositions Containing a Mixed Tocopherol Component” (priority 2007, published 2008).

The test system of data set [1] is prostaglandin E2 in gingival crevicular fluid. The note with it: applied topically in rinse form.
The subject of data set [2] is gingivitis. The note with it: applied topically in toothpaste; primates.
The conditions of data set [3]: applied topically in toothpaste.
The subject of data set [4] is gingivitis. The note with it: applied topically in toothpaste; humans.

Like-named read-outs stand apart in the source and are kept apart here.

Regarding tocopherol [vitamin E], in data set [1], the “level of prostaglandin E2 in gingival crevicular fluid” value was “reduced level of prostaglandin E2”.

Turning to `Cc1c(C)c2c(c(C)c1O)CC[C@@](C)(CCC[C@H](C)CCC[C@H](C)CCCC(C)C)O2` [alpha tocopherol], the effect on gingivitis result in the data set on gingivitis [2] and with gingivitis [4] was “fails to provide an effect on gingivitis” in each case. The “penetration of gum tissue” value in data set [3] is recorded as “penetrates gum tissue”.
